According to patent US9241489B2, “Plant growth regulating compounds” (Syngenta Participations AG, priority 2011, dated 2016):

melting point: 201 to 202 °C
SMILES: N#Cc1cnc(NC(=O)CCC(=O)O)cn1 [Compound A1, 4-[(5-cyanopyrazin-2-yl)amino]-4-oxo-butanoic acid]
